Test results from patent publication US11045473B2, “Compositions and methods for therapy of prostate cancer using drug combinations to target polyamine biosynthesis and related pathways” (Health Research, Inc., priority 2015, dated 2021).
“Also recorded” adds a separate entry of the source.

Experiments:
[1] = system: lung adenocarcinoma cell lines; conditions: 6 day treatment, 20 uM MTA added to the media; cited from earlier work
[2] = system: head and neck squamous carcinoma cell lines; conditions: 12 day treatment, 20 uM MTA added to the media; cited from earlier work
LNCaP = assay: Proliferation / IC50 by trypan blue cell counts, LNCaP; assay type: cell-based, human; conditions: for effect on cell growth: 8 and 12 days; for IC50: Homo sapiens
Experimental: (§1) A transition state analog inhibitor of MTAP, Methylthio-DaDMe-Immucillin-A (MTDIA) was previously described and shown to be effective following a 6 or 12 day treatment at ˜10 and 100 nM MTDIA when 20 uM MTA was added to the media in both lung adenocarcinoma cell lines and head and neck squamous carcinoma cell lines, respectively [Basu I, et al. J Biol Chem. 2007; 282:21477-21486; Basu I, et al. J Biol Chem. 2011; 286:4902-491]. 32]. We synthesized MTDIA and the analytical data on the synthesized compound are shown in FIGS. 8A and 8B with the scheme used for synthesis shown in FIG. 6. […] In all three cell lines, the proliferation curves after 12 days of treatment show an IC50 of MTDIA>1 mM in the absence of MTA (FIG. 5B), but in the 10-100 nM range with the addition of 10 or 20 μM MTA. […] Nanomolar range IC50 values are highlighted.
(§2) IC50—The MTAP inhibitor (3R,4S)-1-[(9-Deaza-adenin-9-yl)methyl]-3-hydroxy-4-(methylthiomethyl)-pyrrolidine, or MT-DADMe-Immucillin-A (MTDIA) was synthesized following the synthesis scheme shown in FIG. 6 and based on a known approach. Cells were seeded at 125,000 cells/well (PC-3, DU145, LNCaP) in triplicate in 2 mLs of RPMI medium supplemented with 10% fetal bovine serum, and 1% penicillin streptomycin. After 24 hours the MTDIA and/or MTA was added at the indicated concentrations. Both medium and drug were refreshed every 48 hours. Every 96 hours the cells were trypsinized, ˜2% of cells were removed and counted by trypan blue exclusion and the rest were replated into a larger vessel.

DU145 = assay: Proliferation / IC50 by trypan blue cell counts, DU145; assay type: cell-based, human; conditions: for effect on cell growth: 8 and 12 days; for IC50: Homo sapiens
Experimental: as §1, §2

spermine synthase [3] = assay: Western blot of spermine synthase in FaDu; assay type: cell-based, human; conditions: treatment with MTDIA
Experimental: (§3) FIG. 9. (A) Proliferation curves for LNCaP, DU145 and PC3 treated with MTDIA in the absence or presence of 10 or 20 uM MTA, for 4 and (B) 8 days. Results of biological triplicates are shown with absolute IC50s indicated for each condition. (C) Western blot analysis of FaDu, LNCaP, and DU145 cells after indicated treatments of MTA (0, 10, or 20 uM) or the respective 4 day IC25 and IC50 dose of MTDIA for each cell line plus or minus MTA immunoblotted with antibodies against MTAP, SMS, and SRM, with B-actin as a loading control. Western blot images are representative of biological triplicates. Band intensity values normalized to B-actin relative to control conditions are indicated below the respective band.
(§4) Western Blotting—Whole cell extracts were prepared in RIPA buffer (150 mM NaCl, 1.0% NP-40, 0.5% deoxycholate, 0.1% SDS, 50 mM Tris-HCl pH 8.0, 5 mM EDTA and 0.5 mM PMSF) supplemented with 1× proteinase inhibitor. Protein concentrations were determined by Bradford Assay (Thermo Scientific, Cat #1856209). Samples were resolved on polyacrylamide gels and transferred onto PVDF membranes (Biorad, Cat #162-0177). Blots were incubated with primary antibodies overnight at 4° and with secondaries for 1.5 hours at room temperature. Signals were visualized using Pierce ECL western blotting substrate (Thermo Scientific, Cat #32209) and exposed to film. […]

MTAP [4] = assay: Western blot of MTAP protein expression in FaDu; assay type: cell-based, human; conditions: 4 day IC25 and IC50 of MTDIA, presence or absence of MTA
Experimental: as §3, with “Results of biological triplicates are shown with absolute IC50s indicated for each condition.” left out, “triplicates.” for “triplicates. Band intensity values normalized to B-actin relative to control conditions are indicated below the respective band.”
(§5) Western Blotting—Whole cell extracts were prepared in RIPA buffer (150 mM NaCl, 1.0% NP-40, 0.5% deoxycholate, 0.1% SDS, 50 mM Tris-HCl pH 8.0, 5 mM EDTA and 0.5 mM PMSF) supplemented with 1× proteinase inhibitor. Protein concentrations were determined by Bradford Assay (Thermo Scientific, Cat #1856209). […] MTAP for Westerns was purchased from Proteintech™ (Cat #11475-1-AP. SRM and SMS were purchased from Abcam® (Cat #ab111884 and ab156879). B-actin antibody for Westerns was purchased from Sigma-Aldrich (Cat #A5441) and GAPDH was from Santa Cruz Biotecnology Inc. (Cat #sc-25778). Films were scanned using the Biorad ChemiDoc XRS, and band intensities were calculated using Image Lab™. Intensity values were normalized to B-actin loading control band intensities and made relative to control treatment conditions.

LNCaP xenograft = LNCaP xenograft growth in nude mice, MTDIA in the drinking water; assay type: in vivo
Experimental: Human cell line xenografts with pharmacological treatment—1×10^6 wild type LNCaP cells were subcutaneously injected onto the flank of pelleted nude mice. At time of injection animals were randomly assigned to one of the following three groups; control, 9 or 21 mg/kg MTDIA in the drinking water with 20 mice in each group. Tumor measurements were assessed and recorded twice a week. Animals were sacrificed once tumors reached 2 cm3 or at the end point of the experiment (91 days).

MTAP [5] = assay: Western blot of MTAP protein expression in LNCaP; assay type: cell-based, human; conditions: 4 day IC25 and IC50 of MTDIA, presence or absence of MTA
Experimental: as §3, with “Results of biological triplicates are shown with absolute IC50s indicated for each condition.” left out, “triplicates.” for “triplicates. Band intensity values normalized to B-actin relative to control conditions are indicated below the respective band.”
as §5

spermine synthase [6] = assay: Western blot of spermine synthase in LNCaP; assay type: cell-based, human; conditions: treatment with MTDIA
Experimental: as §3, §4

With `CSC[C@H]1CN(Cc2c[nH]c3c(N)ncnc23)C[C@@H]1O` [MTDIA, (3R,4S)-1-[(9-Deaza-adenin-9-yl)methyl]-3-hydroxy-4-(methylthiomethyl)-pyrrolidine] as the compound, how does the effective concentration [1] read?
Its effective concentration is ~10 nM.

What about the effective concentration [2] of the same compound?
The effective concentration was ~100 nM.

And the “effect on cell growth” value (LNCaP; 100 nM MTDIA, with 20 μM MTA)?
Its value is “dramatic effect on cell growth”.

What about the “effect on cell growth” value (LNCaP; 100 nM MTDIA, without MTA) of the same compound?
Its value is “little to no effect”.

What about the effect on growth (LNCaP; 100 nM MTDIA, 4 days, with or without 20 μM MTA) of the same compound?
Its effect on growth is “limited effects on growth”.

What about the blocking cell growth (LNCaP; 6 days, low concentrations of MTDIA) of the same compound?
Its blocking cell growth is “no effect at blocking cell growth”.

And the IC50 (LNCaP; 96 h, 4 days, 0 μM MTA)?
Its IC50 is > 1000 µM.

What about the IC50 (LNCaP; 96 h, 4 days, 10 μM MTA) of the same compound?
The IC50 was > 1000 µM.

And the IC50 (LNCaP; 96 h, 4 days, 20 μM MTA)?
Its IC50 is 200 µM.

What about the IC50 (LNCaP; 192 h, 8 days, 0 μM MTA) of the same compound?
Its IC50 is > 1000 µM.

What about the IC50 (LNCaP; 192 h, 8 days, 10 μM MTA) of the same compound?
Its IC50 is 1 µM.

What about the IC50 (LNCaP; 192 h, 8 days, 20 μM MTA) of the same compound?
Its IC50 is 0.085 µM.

What about the IC50 (LNCaP; 288 h, 12 days, 0 μM MTA) of the same compound?
Its IC50 is > 1000 µM.

What about the IC50 (LNCaP; 288 h, 12 days, 10 μM MTA) of the same compound?
The IC50 was 0.011 µM.

What about the IC50 (LNCaP; 288 h, 12 days, 20 μM MTA) of the same compound?
The IC50 was 0.014 µM.

And the IC50 (LNCaP; 288 h, 12 days, with 10 or 20 μM MTA)?
Its IC50 is 0.01 to 0.1 µM.

What about the “effect on cell growth” value (DU145; DU145, 100 nM MTDIA, with 20 μM MTA) of the same compound?
Its value is “dramatic effect on cell growth”.

What about the “effect on cell growth” value (DU145; DU145, 100 nM MTDIA, without MTA) of the same compound?
Its value is “little to no effect”.

And the effect on growth (DU145; DU145, 100 nM MTDIA, 4 days, with or without 20 μM MTA)?
Its effect on growth is “limited effects on growth”.

What about the blocking cell growth (DU145; DU145, 6 days, low concentrations of MTDIA) of the same compound?
The blocking cell growth was “no effect at blocking cell growth”.

And the IC50 (DU145; DU-145, 96 h, DU145, 4 days, 0 μM MTA)?
The IC50 was > 1000 µM.

What about the IC50 (DU145; DU-145, 96 h, DU145, 4 days, 10 μM MTA) of the same compound?
Its IC50 is > 1000 µM.

And the IC50 (DU145; DU-145, 96 h, DU145, 4 days, 20 μM MTA)?
The IC50 was > 1000 µM.

What about the IC50 (DU145; DU-145, 192 h, DU145, 8 days, 0 μM MTA) of the same compound?
The IC50 was > 1000 µM.

What about the IC50 (DU145; DU-145, 192 h, DU145, 8 days, 10 μM MTA) of the same compound?
The IC50 was 0.022 µM.

And the IC50 (DU145; DU-145, 192 h, DU145, 8 days, 20 μM MTA)?
Its IC50 is 590 µM.

And the IC50 (DU145; DU-145, 288 h, DU145, 12 days, 0 μM MTA)?
Its IC50 is > 1000 µM.

And the IC50 (DU145; DU-145, 288 h, DU145, 12 days, 10 μM MTA)?
The IC50 was 0.014 µM.

What about the IC50 (DU145; DU-145, 288 h, DU145, 12 days, 20 μM MTA) of the same compound?
Its IC50 is 0.01 µM.

What about the IC50 (DU145; DU-145, 288 h, DU145, 12 days, with 10 or 20 μM MTA) of the same compound?
Its IC50 is 0.01 to 0.1 µM.

What about the spermine synthase expression (spermine synthase [3]) of the same compound?
The spermine synthase expression was “downregulated”.

And the MTAP expression (MTAP [4])?
Its MTAP expression is “downregulates MTAP”.

What about the xenograft growth (LNCaP xenograft; 21 mg/kg MTDIA daily in the drinking water, vs untreated control and 9 mg/kg dose) of the same compound?
Its xenograft growth is “significant (p<0.001) block in xenograft growth; also recorded: dramatically blocked LNCaP xenograft growth”.

What about the “xenograft growth after drug removal” value (LNCaP xenograft; 21 mg/kg group, drug removed at day 61, carried out to day 91) of the same compound?
The value was “significant block in xenograft growth was maintained”.

What about the MTAP expression (MTAP [5]) of the same compound?
The MTAP expression was “upregulate expression of MTAP”.

What about the spermine synthase expression (spermine synthase [6]) of the same compound?
The spermine synthase expression was “upregulated”.
